Data as given in US20260232767A1, “INTERLEUKIN-23 RECEPTOR ANTAGONIST PEPTIDES FOR USE IN THE TREATMENT OF PSORIASIS” (Janssen Pharmaceutica NV, priority 2023, published 2026).

Test system: subjects with moderate-to-severe plaque psoriasis
Experiment: PASI response, Example 2 long-term extension to Week 52
Assay type: in vivo, human
Conditions: for Change from Baseline in PASI Total Score, LSMean: MMRM model
Description: Described below is a multicenter, long-term extension (LTE), double-blind, dose-ranging, parallel group interventional study in participants from Example 1 to evaluate the long-term efficacy and safety of the hydrochloride salt of the compound of Formula (I) for the treatment of moderate-to-severe plaque psoriasis. Patients from Example 1 continued to receive the same dose of the compound of Formula (I) for an additional 36-week treatment period with a 4-week safety follow up period after the last administration of the compound of Formula (I). Patients randomized to placebo in Example 1 received the compound of Formula (I) at a dose of 100 mg QD starting at Week 16 of Example 1 (FIG. 21).
The primary efficacy endpoint is the proportion of participants achieving a PASI 75 response at Week 52, defined as at least a […] reduction from baseline PASI of Example 1. For primary analysis, composite strategy (non-responder imputation) was applied to address intercurrent event #1 (Discontinuation of study intervention due to lack of efficacy or due to an AE of worsening of psoriasis) and […] (initiation of a protocol-prohibited medication or therapy that could improve psoriasis); treatment policy strategy (observed data) was applied to intercurrent event #3 (Discontinuation of study intervention due to other reasons). Participants with missing data after application of ICEs are considered as non-responders.
Since there was no control arm (after week 16), in this primary analysis, only the proportion of participants who achieved a PASI75 response and its […] confidence interval at Week 52 were summarized for each intervention group.

[1] = Placebo → 100 mg QD, crossed over at or after Week 16, Week 20
[2] = Placebo → 100 mg QD, crossed over at or after Week 16, Week 24
[3] = Placebo → 100 mg QD, crossed over at or after Week 16, Week 28
[4] = Placebo → 100 mg QD, crossed over at or after Week 16, Week 32
[5] = Placebo → 100 mg QD, crossed over at or after Week 16, Week 40
[6] = Placebo → 100 mg QD, crossed over at or after Week 16, Week 52
[7] = Placebo → 100 mg QD, crossed over at or after Week 16, Week 52, non-responder imputation

## CC(=O)NCCCC[C@@H]1NC(=O)[C@H](Cc2c[nH]c3c(C)cccc23)NC(=O)[C@H]([C@@H](C)O)NC(=O)[C@H](CC(N)=O)NC(=O)[C@@H](NC(C)=O)C(C)(C)SSC(C)(C)[C@@H](C(=O)N[C@@H](Cc2ccc(OCCN)cc2)C(=O)N[C@@H](Cc2ccc3ccccc3c2)C(=O)NC2(C(=O)N[C@@H](CCC(=O)O)C(=O)N[C@@H](CC(N)=O)C(=O)N[C@@H](Cc3cccnc3)C(=O)N(C)CC(N)=O)CCOCC2)NC1=O [IL-23 receptor antagonist peptide, Ac-[Pen]*-N-T-[W(7-Me)]-[Lys(Ac)]-[Pen]*-Phe[4-(2-aminoethoxy)]-[2-Nal]-[THP]-E-N-[3-Pal]-Sarc-NH2 (*[Pen]-[Pen]* formdisulfidebond)]
100 mg QD, Week 52
  Subjects achieving PASI 75: 28 (65.1%)
  Change from Baseline in PASI Total Score, LSMean: −15.5
100 mg QD, Week 52, non-responder imputation
  Subjects achieving ≥75% Improvement at Week 52 (PASI 75 Response): 28 (65.1%)
[1]
  Change from Baseline in PASI Total Score, Mean: −10.44
  Change from Baseline in PASI Total Score, Median: −10.35
  Change from Baseline in PASI Total Score, LSMean: −10.3
[2]
  Change from Baseline in PASI Total Score, Mean: −13.26
  Change from Baseline in PASI Total Score, Median: −14.10
  Change from Baseline in PASI Total Score, LSMean: −13.2
[3]
  Change from Baseline in PASI Total Score, Mean: −13.77
  Change from Baseline in PASI Total Score, Median: −14.10
  Change from Baseline in PASI Total Score, LSMean: −13.7
[4]
  Change from Baseline in PASI Total Score, Mean: −14.14
  Change from Baseline in PASI Total Score, Median: −14.75
  Change from Baseline in PASI Total Score, LSMean: −13.7
[5]
  Change from Baseline in PASI Total Score, Mean: −13.73
  Change from Baseline in PASI Total Score, Median: −14.85
  Change from Baseline in PASI Total Score, LSMean: −13.6
[6]
  Change from Baseline in PASI Total Score, Mean: −14.15
  Change from Baseline in PASI Total Score, Median: −15.30
  Change from Baseline in PASI Total Score, LSMean: −14.0
[7]
  Subjects achieving 100% Improvement at Week 52 (PASI): 12 (34.3%)
  Subjects achieving ≥75% Improvement at Week 52 (PASI 75 Response): 23 (65.7%)
  Subjects achieving ≥90% Improvement at Week 52 (PASI): 20 (57.1%)
Week 1, 50 mg QD, N=43
  PASI ≥75% Improvement, subjects (%): (4.7%)
Week 1, 100 mg BID, N=42
  PASI ≥75% Improvement, subjects (%): (2.4%)
  PASI ≥90% Improvement, subjects (%): (2.4%)
Week 1, 100 mg QD, N=43
  PASI ≥75% Improvement, subjects (%): (2.3%)
Week 2, 50 mg QD, N=43
  PASI ≥75% Improvement, subjects (%): (4.7%)
Week 2, 100 mg BID, N=42
  PASI ≥75% Improvement, subjects (%): (4.8%)
  PASI ≥90% Improvement, subjects (%): (2.4%)
Week 2, 100 mg QD, N=43
  PASI ≥75% Improvement, subjects (%): (2.3%)
Week 4, 25 mg BID, N=41
  PASI ≥75% Improvement, subjects (%): (4.9%)
Week 4, 25 mg QD, N=43
  PASI ≥75% Improvement, subjects (%): (9.3%)
  PASI ≥90% Improvement, subjects (%): (2.3%)
Week 4, 50 mg QD, N=43
  PASI ≥75% Improvement, subjects (%): (16.3%)
Week 4, 100 mg BID, N=42
  PASI ≥75% Improvement, subjects (%): (23.8%)
  PASI ≥90% Improvement, subjects (%): (9.5%)
Week 4, 100 mg QD, N=43
  PASI ≥75% Improvement, subjects (%): (16.3%)
  PASI ≥90% Improvement, subjects (%): (4.7%)
Week 8, 25 mg BID, N=41
  PASI 100% Improvement, subjects (%): (2.4%)
  PASI ≥75% Improvement, subjects (%): (19.5%)
  PASI ≥90% Improvement, subjects (%): (7.3%)
Week 8, 25 mg QD, N=43
  PASI 100% Improvement, subjects (%): (2.3%)
  PASI ≥75% Improvement, subjects (%): (23.3%)
  PASI ≥90% Improvement, subjects (%): (14.0%)
Week 8, 50 mg QD, N=43
  PASI 100% Improvement, subjects (%): (2.3%)
  PASI ≥75% Improvement, subjects (%): (39.5%)
  PASI ≥90% Improvement, subjects (%): (18.6%)
Week 8, 100 mg BID, N=42
  PASI 100% Improvement, subjects (%): (11.9%)
  PASI ≥75% Improvement, subjects (%): (47.6%)
  PASI ≥90% Improvement, subjects (%): (28.6%)
Week 8, 100 mg QD, N=43
  PASI 100% Improvement, subjects (%): (4.7%)
  PASI ≥75% Improvement, subjects (%): (44.2%)
  PASI ≥90% Improvement, subjects (%): (20.9%)
Week 12, 25 mg BID, N=41
  PASI 100% Improvement, subjects (%): (4.9%)
  PASI ≥75% Improvement, subjects (%): (51.2%)
  PASI ≥90% Improvement, subjects (%): (19.5%)
Week 12, 25 mg QD, N=43
  PASI 100% Improvement, subjects (%): (4.7%)
  PASI ≥75% Improvement, subjects (%): (34.9%)
  PASI ≥90% Improvement, subjects (%): (18.6%)
Week 12, 50 mg QD, N=43
  PASI 100% Improvement, subjects (%): (4.7%)
  PASI ≥75% Improvement, subjects (%): (51.2%)
  PASI ≥90% Improvement, subjects (%): (34.9%)
Week 12, 100 mg BID, N=42
  PASI 100% Improvement, subjects (%): (33.3%)
  PASI ≥75% Improvement, subjects (%): (73.8%)
  PASI ≥90% Improvement, subjects (%): (52.4%)
Week 12, 100 mg QD, N=43
  PASI 100% Improvement, subjects (%): (14.0%)
  PASI ≥75% Improvement, subjects (%): (62.8%)
  PASI ≥90% Improvement, subjects (%): (39.5%)
Week 16, 25 mg BID, N=41
  PASI 100% Improvement, subjects (%): (9.8%)
  PASI ≥75% Improvement, subjects (%): (51.2%)
  PASI ≥90% Improvement, subjects (%): (26.8%)
Week 16, 25 mg QD, N=43
  PASI 100% Improvement, subjects (%): (11.6%)
  PASI ≥75% Improvement, subjects (%): (37.2%)
  PASI ≥90% Improvement, subjects (%): (25.6%)
Week 16, 50 mg QD, N=43
  PASI 100% Improvement, subjects (%): (25.6%)
  PASI ≥75% Improvement, subjects (%): (58.1%)
  PASI ≥90% Improvement, subjects (%): (51.2%)
Week 16, 100 mg BID, N=42
  PASI 100% Improvement, subjects (%): (40.5%)
  PASI ≥75% Improvement, subjects (%): (78.6%)
  PASI ≥90% Improvement, subjects (%): (59.5%)
Week 16, 100 mg QD, N=43
  PASI 100% Improvement, subjects (%): (23.3%)
  PASI ≥75% Improvement, subjects (%): (65.1%)
  PASI ≥90% Improvement, subjects (%): (46.5%)
Week 20, 25 mg BID, N=41
  PASI 100% Improvement, subjects (%): (19.5%)
  PASI ≥75% Improvement, subjects (%): (56.1%)
  PASI ≥90% Improvement, subjects (%): (34.1%)
Week 20, 25 mg QD, N=43
  PASI 100% Improvement, subjects (%): (14.0%)
  PASI ≥75% Improvement, subjects (%): (48.8%)
  PASI ≥90% Improvement, subjects (%): (30.2%)
Week 20, 50 mg QD, N=43
  PASI 100% Improvement, subjects (%): (18.6%)
  PASI ≥75% Improvement, subjects (%): (62.8%)
  PASI ≥90% Improvement, subjects (%): (48.8%)
Week 20, 100 mg BID, N=42
  PASI 100% Improvement, subjects (%): (40.5%)
  PASI ≥75% Improvement, subjects (%): (81.0%)
